Read-outs that look alike come from different tables or passages of the source.
How the values were obtained:
[1] = Pharmacokinetics of 5-fluoro-orotate in mice; assay type: in vivo, Swiss white mice
Experimental: FIG. 3 illustrates time-dependant changes in plasma 5-fluoroorotate concentration following single intraperitoneal injections of 5-fluoro-orotate at 0.2 mg/kg (.box-solid.), 1 mg/kg (.diamond-solid.), or 5 mg/kg (.tangle-solidup.). Two mice were used at each dosage level. At each time point, duplicate 200 μl samples of blood were drawn and analyzed for 5-fluoro-orotate concentration.
Several types of in vivo experiments in intact vertebrates can be used to test the effectiveness in vivo of the anti-malarial compositions of this invention. In one in vivo test system, dosage regimens for pyrimidine analogues are estimated by determining the pharmacokinetics of the drugs. Normal and malaria parasite-infected animals (preferably mice, but other rodents can be used) are injected once (preferably intraperitoneally, but subcutaneous or intravenous administration is also suitable) with the drug at various doses, e.g, from 0 to about 10 mg/kg body weight, preferably from about 0.2 to about 5 mg/kg body weight. At various time points (preferably from about 3 to about 180 minutes), blood samples are drawn from the animals and the amount of the drug in the plasma fraction determined as described in Example 7 below. The concentration of drug is plotted as a function of time for each drug dosage.
Pairs of Swiss white mice (Charles River Labs, Mass.) were injected intraperitoneally with 200 μl of [2-^14 C]-5-fluoro-orotate in saline (55 μCi/μmol). Single injections of the drug were made at dosages of 0.2, 1 and 5 mg/kg body weight. At time points ranging from about 3 to about 180 minutes, two 200 μl blood samples were drawn from the tail veins of the mice, and the amount of 5-fluoro-orotate present in the plasma determined, as described below.
Blood samples were immediately diluted in 100 μl of cold saline, and centrifuged in a desk top Eppendorf centrifuge for 1 minute to separate the plasma fraction from blood cells. Cell pellets were washed with 100 μl of saline, centrifuged, and the supernatant fractions mixed with plasma fractions. In order to determine the 5-fluoro-orotate concentrations of the diluted plasma fractions, the radioactive content of half the samples was determined by liquid scintillation spectrometry. The remaining samples were chromatographed on a Pharmacia FPLC system using a Mono Q anion-exchange column.

P. yoelii = assay: Anti-malarial activity in P. yoelii-infected mice; assay type: in vivo, P. yoelii in Swiss white mice
Experimental: FIG. 4 illustrates the effect of 5-fluoro-orotate treatment on blood parasitemia. Mice infected with P. yoelii on day 0 in experiments 1 and 2 were treated with (A) 0.2 mg/kg 5-fluoro-orotate, (B) 1 mg/kg, or (C) 5 mg/kg every 4 hours for three days. Control mice (.largecircle., .circle-solid., respectively), received no drug. Open symbols represent treatment without uridine (experiment 1: .smallcircle., .quadrature., .diamond., Δ), and filled symbols represent animals also treated with uridine (experiment 2: .circle-solid., .box-solid., .diamond-solid., .tangle-solidup.). Animals were treated with 5-fluoro-orotate on days 3 to 6. Animals were also treated with uridine in experiment 2 on days 3 to 9.
FIG. 5 illustrates the survival rate of mice infected with P. yoelii and treated with 5-fluoro-orotate, alone or in combination with uridine. Mice were treated with (A) 0.2 mg/kg 5-fluoro-orotate, (B) 1 mg/kg, or (C) 5 mg/kg. Control mice received no 5-fluoro-orotate (.largecircle., .circle-solid., respectively). Open symbols represent treatment without uridine (experiment 1: .largecircle., .quadrature., .diamond., Δ), and closed symbols represent animals also receiving uridine (experiment 2: .circle-solid., .box-solid., .diamond-solid., .tangle-solidup.).
A second in vivo test system can be used to determine if repeated administration of the pyrimidine analogue would have safe anti-malarial activity. In this test system, groups of animals are infected with malaria parasites. At a time when blood parasitemia is reached, the animals are injected with saline alone (control) or with various concentrations of one or more pyrimidine analogues alone or together with one or more rescuing pyrimidine bases or nucleosides at a single concentration, at intervals, over a period of several days. In order to determine the prophylactic effectiveness of the rescuing pyrimidine base or nucleoside, the animals are pretreated with such a base or nucleoside prior to the administration of the pyrimidine analogue. Anti-malarial activity of the treatments is estimated by determining blood parasitemia on the animals at appropriate times. The safety of the treatments is estimated by monitoring animals for weight loss and diarrhea, as these are early symptoms of pyrimidine analogue toxicity [Houghton, J. A., et al., Cancer Res., 39:2406-13 (1979)].
Swiss white mice (25-30 g) were divided into groups of five. On day 0, each mouse was infected by intraperitoneal injection of 10^5 erythrocytic forms of P. yoelii. Starting on day 3, when the blood parasitemia had reached between 5 and 12%, the mice were injected intraperitoneally every 4 hours for three consecutive days with 200 μl of various formulations. […]

SMILES: O=C(O)c1[nH]c(=O)[nH]c(=O)c1F [5-fluoro-orotate]
- identity of plasma radioactivity ([1]; 90 minutes after injection, Mono Q chromatography): radioactivity in the plasma fraction was due to 5-fluoro-orotate and not some secondary metabolite of the experimental drug
- plasma pharmacokinetic profile in infected mice ([1]; P. yoelii infected (10% parasitemia), 1 mg/kg, vs uninfected mice): essentially the same as that of uninfected mice
- circulating radioactivity associated with blood cells ([1]; [2-14C]-5-fluoro-orotate i.p.): below 10%
- half-life ([1]; mouse, ip, single i.p. dose, plasma, mice, read-out: t1/2 (loss from the circulation)): ~1.5 h
- concentration at 1 h ([1]; mouse, plasma, ip, 0.2 mg/kg i.p., within 60 minutes, read-out: drug concentration within 60 minutes): < 0.5 µM
- Cmax ([1]; mouse, plasma, ip, 0.2 mg/kg i.p., read-out: maximum drug concentration): ≤ 2 µM
- Cmax ([1]; mouse, plasma, ip, single i.p. 5 mg/kg, read-out: peak plasma concentration): ~30 µM
- Tmax ([1]; mouse, plasma, ip, single i.p. 0.2, 1, 5 mg/kg, all dosages, read-out: time of peak plasma concentration): ≤ 0.333 h
- concentration ([1]; single i.p. 5 mg/kg, read-out: plasma concentration after rapid drop): < 10 µM
- time to return of parasitemia after end of treatment (P. yoelii; 0.2 mg/kg, treatment stopped day 6): ≤ 24 h
- transient parasitemia after rechallenge (P. yoelii; 10^6 P. yoelii parasites, days 2 to 4, 0.2 mg/kg group): less than 0.05%
- time to resolution of second surge of parasitemia (P. yoelii; low doses (0.2 and 1 mg/kg), no additional drug): ≤ 14 days
